Experimental findings from PMC9115112, “A2B adenosine receptor antagonists rescue lymphocyte activity in adenosine-producing patient-derived cancer models” (Journal for Immunotherapy of Cancer, 2022) are described below.

Assay [1] has as its system healthy donor T cells (PBMCs) and NK cells. Kind of assay: CFSE proliferation assay with exogenous adenosine. It counts as cell-based, human. The note with it: higher concentration further restoring proliferation, data not shown.
The target of another assay is T1, human A1AR (Homo sapiens, UniProt P30542).
T1 construct: expressed in transfected cells; host or cells: CHO
T1 sequence (P30542 1-326): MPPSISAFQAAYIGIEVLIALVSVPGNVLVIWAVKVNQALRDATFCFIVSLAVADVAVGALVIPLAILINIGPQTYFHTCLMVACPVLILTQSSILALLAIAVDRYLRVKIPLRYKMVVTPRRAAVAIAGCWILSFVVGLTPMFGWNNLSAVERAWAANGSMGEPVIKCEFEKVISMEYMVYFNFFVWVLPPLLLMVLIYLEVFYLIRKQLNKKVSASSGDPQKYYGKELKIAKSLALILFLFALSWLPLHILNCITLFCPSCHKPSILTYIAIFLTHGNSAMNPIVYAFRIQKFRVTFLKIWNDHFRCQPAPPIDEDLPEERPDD
Kind of assay: Radioligand binding, human A1AR ([3H]DPCPX, transfected CHO cells). The note with it: displacement of [3H]DPCPX, n=3, racemic mixtures. The method, then: (§1) The affinity and selectivity profiles of the ligands obtained was studied in vitro, radioligand binding assays, at the four human specific ARs subtypes, using experimental protocols previously described.[28–30] All ligands were prepared and tested as racemic mixtures. […] Non-specific binding was determined in the presence of R-PIA 10 µM for A1AR, NECA 50 µM for A2AAR, NECA 400 μΜ for A2BAR and R-PIA 100 μΜ for A3AR.

The target of a further assay is T2, human A3AR (Homo sapiens, UniProt P0DMS8).
T2 construct: expressed in transfected cells; host or cells: HeLa
T2 sequence (P0DMS8 1-318): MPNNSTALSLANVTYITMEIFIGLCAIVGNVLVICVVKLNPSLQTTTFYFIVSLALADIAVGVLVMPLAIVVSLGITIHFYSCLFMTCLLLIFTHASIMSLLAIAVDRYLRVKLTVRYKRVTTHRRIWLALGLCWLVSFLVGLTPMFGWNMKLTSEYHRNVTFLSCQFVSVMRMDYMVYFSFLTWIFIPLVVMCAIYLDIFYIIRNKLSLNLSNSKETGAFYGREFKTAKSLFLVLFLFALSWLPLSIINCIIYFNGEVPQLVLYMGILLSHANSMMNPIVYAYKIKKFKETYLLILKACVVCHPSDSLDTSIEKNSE
Kind of assay: Radioligand binding, human A3AR ([3H]NECA, transfected HeLa cells). The following applies: displacement of [3H]NECA, n=3, racemic mixtures. The method, then: as §1
On the technique in general: In a radioligand displacement assay an active substance lowers the binding of a labelled ligand.

The subject of assay [2] is pAMPK in CD4 and CD8 T cells. Put plainly: Extracellular ADO uptake assay via pAMPK staining. It counts as cell-based, human. The following applies: antagonist 12 µM, 50 µM exogenous adenosine, n=7 healthy donors. The method, then: Experimental setup was adopted from a previous study whereby AR antagonist was added to pretreat cells before exogenous adenosine treatment for intracellular and cytokine staining.[37] In brief, PBMCs were treated with 12 µM of A2BAR antagonists for 90 min before the addition of 50 µM of adenosine for 2 hours. Cells were harvested after 3 hours of CD3/CD28 bead stimulation before intracellular staining with phosphor-AMPK (Thr183, Thr172) rabbit primary antibody (Thermo Fisher Scientific) and antirabbit secondary antibody (BD biosciences).
Figure 4 Rescue of lymphocyte proinflammatory cytokine production IFNy and perforin by A2BAR antagonism. (A,B) Inhibition of extracellular adenosine uptake via phosphorylated-AMP activated protein kinase (pAMPK) staining (n=7 healthy donors). Production of proinflammatory cytokines—(C,D) IFNy and (E) perforin in CD4 (n=5 healthy donors) and CD8 (n=6 healthy donors) T cells. Expression of CD69 adhesion molecule in (F). CD4 (n=7 healthy donors) and (G) CD8 (n=4 healthy donors) T cells. A2BAR antagonist 12 µM was added. Outlier is presented as diamond shape and defined by Tukey’s rule, which is not included in statistical analysis. Box plots with minimum, first quartile, median, third quartile, and maximum are presented. Normalized fold change is based on percent values compared with untreated controls. Unpaired and non-parametric statistical analysis—Mann-Whitney test was performed against untreated control with *p<0.05, **p<0.01, ***p<0.001, and ****p<0.0001.

The subject of assay [3] is breast cancer TILs against autologous tumor cells. Put plainly: Chromium (51Cr) release cytotoxicity assay, breast cancer TILs. The note with it: synthetic ADO, 48 hours. In kind it is cell-based, human. The method, then:
Chromium (51Cr) release cytotoxicity assay
Chromium (51Cr) release assay was used to measure the autologous TILs-mediated cytotoxicity against the established patient-derived breast and […] cell lines. Briefly, breast and sarcoma tumor cells were labelled with 51Cr (PerkinElmer) as target cells and seeded on 96-well V-bottom plate (Corning) at 5 000cells/well. Effector TILs were added at the indicated Effector: Target (E:T) ratios. The supernatants were collected carefully into LUMA plates (PerkinElmer) after 24 and 48 hours of co-culture. After drying overnight, radioactivity of the plate was read with MicroBeta2 (PerkinElmer).
Relative adenosine production assay
An ectonucleotidase CD73 assay was optimized to measure the relative ADO production based on competitive AMP blockade and presence of CD73+ cells. Day five patient-derived sarcoma spheroids were digested and split into triplicates in X-VIVO20 and 1% PS culture media with an excessive amount of AMP at 0.4mM (Sigma-Aldrich) incubated for 30 minutes.
After 1500 RPM was applied for three minutes, 25 μL supernatant were removed and mixed with 25 μL of 200 μM ATP (Sigma-Aldrich) in the same media. 25 μL of this mixture was added to a white opaque OptiPlate (PerkinElmer) containing 25 μL Cell-Titer Glo reagent (Promega, US). Relative luminescence unit (RLU) can be read on SPARK 10M plate reader with an integration time of 100ms. […]

Bounds are passed on as bounds.

Consider `CC1=C(C(=O)OC(C)C)C(c2ccco2)n2c(nc3ccccc32)N1` (stereo not shown) [ISAM-140, isopropyl 4-(furan-2-yl)−2-methyl-1,4-dihydrobenzo[4 5] imidazo[1,2 a]pyrimidine-3-carboxylate], for which the “Dose dependence of the proliferation rescue on T and NK cells” value in assay [1] is recorded as “dose-dependent”.

On to `CC1=C(C(=O)OC(C)C)C(c2ccco2)n2c(nc3ccccc32)N1Cc1ccccc1F` (stereo not shown) [ISAM-R56A], for which the inhibitory constant (Ki) on human A1AR (transfected CHO cells, read-out: Ki hA1) was > 1000 nM. For the same molecule, on human A3AR (read-out: Ki hA3), the Ki was > 1000 nM. In assay [2], the “pAMPK (extracellular ADO uptake) in CD4 T cells” value is given as “significantly downregulated pAMPK” and the “pAMPK (extracellular ADO uptake) in CD8 T cells” value is “significantly downregulated pAMPK”. In assay [3], the “Rescue of killing of breast cancer TILs against autologous tumor cells” value was “rescued killing”.

Take `CC1=C(C(=O)OC(C)C)C(c2ccoc2)n2c(nc3cc(Cl)ccc32)N1` (stereo not shown) [ISAM-M89A]: the “Ki hA1” value on human A1AR (human CHO cells) was “devoid of affinity”. Besides, the “Ki hA3” value at human A3AR is on record as “devoid of affinity”. For the same molecule, the “pAMPK (extracellular ADO uptake) in CD8 T cells” value in assay [2] is “significantly inhibited ADO uptake”. For the same molecule, in assay [3], the “Rescue of killing of breast cancer TILs against autologous tumor cells” value is reported as “rescued killing”.

The term Ki denotes the dissociation constant of the complex between target and ligand, obtained from inhibition or displacement.
